Test results: patent US8080575B2, “Gamma-lactam compounds for promoting bone growth” (Osteogenex Inc., priority 2008, dated 2011)

What was measured:
[1] = tested on: C57BL/6 mice; test: Trabecular bone volume by micro-CT analysis on the proximal tibia in mice treated daily i.p. for 30 days; assay type: in vivo; settings: four month old male C57BL/6 mice
Experimental: (§1) Four month old male C57BL/6 mice were treated daily with saline vehicle or the sclerostin inhibitor of Formula Ib:
(§2) [drawing 9] at low, mid, or high doses (via i.p) for 30 days. Study endpoints included a biochemical marker of bone formation, osteocalcin measured by EIA Elisa, and measurement of trabecular bone volume by mico-CT analysis on the proximal tibia.

[2] = tested on: C57BL/6 mice; test: Serum osteocalcin (biochemical marker of bone formation) measured by EIA Elisa in mice treated daily i.p. for 30 days; assay type: in vivo; settings: four month old male C57BL/6 mice, fraction
Experimental: as §1, §2

SMILES: O=C1CCCN1c1ccccc1O [Formula Ib]
- percent change in tibia long bone volume increase versus saline controls ([1]; 0.5 mg/kg (C)): 13%
- percent change in tibia long bone volume increase versus saline controls ([1]; 2 mg/kg (B)): 40%
- percent change in tibia long bone volume increase versus saline controls ([1]; 10 mg/kg (A)): 69%
- increase in serum osteocalcin over baseline ([2]; 0.5 mg/kg (C), also printed as 4%): 0.04
- increase in serum osteocalcin over baseline ([2]; 2 mg/kg (B), also printed as 24%): 0.24
- increase in serum osteocalcin over baseline ([2]; 10 mg/kg (A), also printed as 27%): 0.27
